Measured values reported in patent US7943619B2, “Isoxazolo-pyridazine derivatives” (priority 2007, dated 2011).

Target: human GABA A receptor α5β3γ2 (α5 subunit) (Homo sapiens, UniProt P18507+P31644)
Assay: biochemical
Assay type: binding
Conditions: competition for [3H]flumazenil binding, HEK293 cells transiently expressing human receptors; means of two determinations; read-out: hKi
Description: The affinity of compounds at GABA A receptor subtypes was measured by competition for [3H]flumazenil (85 Ci/mmol; Roche) binding to HEK293 cells expressing rat (stably transfected) or human (transiently transfected) receptors of composition α1β3γ2, α2β3γ2, α3β3γ2 and α5β3γ2.
Cell pellets were suspended in Krebs-tris buffer (4.8 mM KCl, 1.2 mM CaCl2, 1.2 mM MgCl2, 120 mM NaCl, 15 mM Tris; pH 7.5; binding assay buffer), homogenized by polytron for ca. 20 sec on ice and centrifuged for 60 min at 4° C. (50000 g; Sorvall, rotor: SM24=20000 rpm). The cell pellets were resuspended in Krebs-tris buffer and homogenized by polytron for ca. 15 sec on ice. Protein was measured (Bradford method, Bio-Rad) and aliquots of 1 mL were prepared and stored at −80° C.
Assays were incubated to equilibrium for 1 hour at 4° C. and harvested onto GF/C uni-filters (Packard) by filtration using a Packard harvester and washing with ice-cold wash buffer (50 mM Tris; pH 7.5). After drying, filter-retained radioactivity was detected by liquid scintillation counting. Ki values were calculated using Excel-Fit (Microsoft) and are the means of two determinations.

human GABA A receptor α5β3γ2 (α5 subunit), sequence (P31644 32-462): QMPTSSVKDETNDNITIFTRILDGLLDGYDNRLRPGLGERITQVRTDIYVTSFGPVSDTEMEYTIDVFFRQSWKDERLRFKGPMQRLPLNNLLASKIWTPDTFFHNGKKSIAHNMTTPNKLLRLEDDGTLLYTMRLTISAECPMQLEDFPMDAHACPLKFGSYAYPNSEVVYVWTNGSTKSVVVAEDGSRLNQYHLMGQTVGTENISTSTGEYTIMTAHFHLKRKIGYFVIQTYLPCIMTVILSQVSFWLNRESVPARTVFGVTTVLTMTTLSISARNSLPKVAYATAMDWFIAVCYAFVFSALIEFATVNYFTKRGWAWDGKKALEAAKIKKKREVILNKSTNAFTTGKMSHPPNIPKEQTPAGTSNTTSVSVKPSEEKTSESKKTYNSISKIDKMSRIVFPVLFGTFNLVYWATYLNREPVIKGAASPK
human GABA A receptor α5β3γ2 (α5 subunit), sequence (P28472 26-473 partner): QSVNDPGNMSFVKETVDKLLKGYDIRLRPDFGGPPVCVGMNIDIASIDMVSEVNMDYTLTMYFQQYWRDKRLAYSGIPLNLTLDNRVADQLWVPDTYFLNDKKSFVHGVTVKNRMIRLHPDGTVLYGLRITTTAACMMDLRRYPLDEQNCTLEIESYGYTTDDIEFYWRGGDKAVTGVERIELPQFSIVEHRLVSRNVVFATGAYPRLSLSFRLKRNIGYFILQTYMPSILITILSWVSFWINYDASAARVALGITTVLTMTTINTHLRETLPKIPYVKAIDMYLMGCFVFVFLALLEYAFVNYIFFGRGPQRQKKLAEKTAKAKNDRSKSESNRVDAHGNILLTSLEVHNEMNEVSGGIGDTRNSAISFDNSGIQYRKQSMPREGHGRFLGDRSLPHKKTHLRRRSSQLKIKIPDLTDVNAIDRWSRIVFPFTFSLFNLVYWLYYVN
human GABA A receptor α5β3γ2 (α5 subunit), sequence (P18507 40-475): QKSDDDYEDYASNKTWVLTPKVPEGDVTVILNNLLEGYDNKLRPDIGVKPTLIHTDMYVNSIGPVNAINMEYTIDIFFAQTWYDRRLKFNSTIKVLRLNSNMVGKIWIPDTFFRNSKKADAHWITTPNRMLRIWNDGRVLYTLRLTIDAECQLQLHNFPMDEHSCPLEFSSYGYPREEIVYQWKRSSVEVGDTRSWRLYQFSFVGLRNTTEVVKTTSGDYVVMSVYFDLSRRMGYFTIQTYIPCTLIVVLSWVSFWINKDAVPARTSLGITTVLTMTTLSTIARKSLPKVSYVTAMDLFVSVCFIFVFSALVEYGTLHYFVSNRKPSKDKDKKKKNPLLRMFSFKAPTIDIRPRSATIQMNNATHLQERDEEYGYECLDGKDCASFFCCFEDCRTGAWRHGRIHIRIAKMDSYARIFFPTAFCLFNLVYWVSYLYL

## COCCNC(=O)c1ccc(OCc2c(-c3ccccc3)noc2C)nn1 [Example 6, 6-(5-Methyl-3-phenyl-isoxazol-4-ylmethoxy)-pyridazine-3-carboxylic acid (2-methoxy-ethyl)-amide]
  Ki: 5.4 nM

## Cc1onc(-c2cccc(F)c2)c1COc1ccc(C(=O)NCCO)nn1 [Example 52, 6-[3-(3-Fluoro-phenyl)-5-methyl-isoxazol-4-ylmethoxy]-pyridazine-3-carboxylic acid (2-hydroxy-ethyl)-amide]
  Ki: 6.6 nM
